The subject of data set [1] is Apis mellifera. As to conditions: acute, mortality.
Data set [2] has as its system Neovison vison. The following applies: reproduction developmental; reproduction.
For data set [3], the system named is Mus musculus. The following applies: acute; oral; mortality.
Data set [4] relates to Scenedesmus quadricauda. As to conditions: acute.
Data set [5] has as its system Pontoscolex corethrurus. As to conditions: acute; mortality.
The test system of data set [6] is Daphnia magna. The following applies: chronic/long-term.
The subject of data set [7] is Rattus norvegicus. The following applies: reproduction developmental; mortality.
Data set [8] relates to Oncorhynchus mykiss. The following applies: acute; mortality.
The test system of data set [9] is Oryctolagus sp. As to conditions: reproduction developmental; mortality.
Data set [10] concerns Bird.

Take `[I-].[K+]` [Potassium iodide]: the LD50 in data set [1] (dermal) is above 0.78 µg/piece; in data set [1] (oral, unspecified) it was above 2.4 µg/piece; in [3], 1860 mg/kg; in [10] (acute, oral, unspecified, mortality), above 1180 mg/kg-day. The NOAEL in [2], in data set [7] and in data set [9] was 0.5 mg/kg-day each time. Also, the NOEC in data set [4] is 1310 mg/L; in [6] it was 0.25 mg/L; in data set [10] (reproductive, reproduction), 0.69 mg/kg-day. Besides, the LC50 in [5] is above 12.5 mg/kg; in data set [8], 2190 mg/L; in data set [10] (short-term, oral, feed, mortality), above 258 mg/kg-day.

The values are drawn from EPA's ToxValDB 9.5 (doi:10.2903/j.efsa.2013.2923).
